From patent US12325676B2, “Cationic lipid compound and composition for delivery of nucleic acids and use thereof” (Shenzhen Rhegen Biotechnology Co., Ltd., priority 2022, dated 2025)

How the values were obtained:
[1] = Encapsulation rate of mRNA-loaded lipid nanoparticles (Ribogreen kit); assay type: physicochemical
Description: (§1) Luciferase mRNA was diluted in 10-100 mM citrate buffer at pH 4.0; the lipid components (cationic lipids shown in the present disclosure: DSPC:cholesterol:PEG lipids (DMG-PEG2000)) were dissolved in ethanol at a molar ratio of 50:10:38.5:1.5.
(§2) 3 mL of a mRNA buffer and 1 mL of a lipid solution were loaded into two 5 mL syringes respectively, and the syringes were installed on a microfluidic syringe pump. Chips were connected to the syringes and syringe pump flow rate was set. Clicking the start button of the syringe pump caused injection into the chip at a flow rate ratio of 3:1. Under observation of the color of the product at the exit of the chip, after discarding the first 5 milky white droplets (about 100 μL), the back-end sample was collected into an EP tube. The collected product was placed in a dialysis bag and dialyzed for 6 h (MWCO: 100 KDa) in 10 mM PBS (pH 7.4) intervals. Subsequently, after being concentrated by ultrafiltration to the desired concentration, the lipid nanoparticles were filtered through a 0.22 μm sterile filter and then stored at 4° C.
(§3) Tests were performed to calculate the encapsulation rate of the products according to the instructions of Ribogreen kit. Particle size and polydispersity index (PDI) detection as well as zeta potential analysis was performed on a Malvern Zetasizer nano instrument using standard assays.

[2] = Particle size, PDI and zeta potential of mRNA-loaded lipid nanoparticles (Malvern Zetasizer nano); assay type: physicochemical
Description: as §1, §2, §3

BALB/c mice [3] = test: In vivo expression of luciferase mRNA delivered by LNP, tail intravenous injection, small animal imaging; conditions: Table 3, 5 μg mRNA, female BALB/c mice, DLin-MC3-DMA = 100
Description: LUC-mRNA-lipid nanoparticles containing 5 μg mRNA (see SEQ ID NO: 1 in the Patent Application Publication CN114380724A for the corresponding nucleotide sequence of LUC-mRNA) were injected via tail intravenous injection in 6-8 week old female BALB/c mice, prepared as in Example 19. 100 μg of D-Luciferin Potassium Salt was injected via tail intravenous injection into the mice at specific time points and assayed using the PerkinElmer Small Animal Imaging System. Fluc is commonly used in mammalian cell cultures to measure gene expression and cell viability, and it emits biological fluorescent light in the presence of the substrate […]. The basic characteristics of the mRNA used include ARCA cap structure, polyA tail length of 120 nt, and complete substitution of pseudouridine.
The effect of delivering luciferase mRNA using more cationic lipids were validated according to the methods of Example 20 and Example 21.

BALB/c mice [4] = test: In vivo expression of luciferase mRNA delivered by LNP, lung nebulization; conditions: LUC-mRNA LNP, 5 μg mRNA, compared with Lipid M and SM-102
Description: LUC-mRNA-lipid nanoparticles containing 5 μg mRNA were administrated via lung nebulization in 6-8 week old BALB/c mice, prepared as in Example 19. 100 μg of D-Luciferin Potassium Salt was injected via tail intravenous injection into the mice at specific time points and assayed using the PerkinElmer Small Animal Imaging System.

BALB/c mice [5] = test: In vivo EPO protein expression after tail i.v. injection of EPO-mRNA LNP, serum ELISA; conditions: 6 hours after tail i.v. injection of 20 μg EPO-mRNA-lipid nanoparticles, female Balb/c mice
Description: In the example, the effects of in vivo transfection of erythropoietin (EPO) by various cationic liposomes were compared. Nanoparticles were prepared in the same manner as in Example 20, and the nucleotide sequence corresponding to the EPO mRNA used is given in CN114380724B, SEQ ID NO:2. After preparation, 20 μg of EPO-mRNA-lipid nanoparticles were injected via tail intravenous injection in 6-8 week female Balb/c mice. 6 hours later the mice were subjected to blood sampling from the eye frame. After centrifugation to separate the serum, EPO protein expression was determined using ELISA. The basic characteristics of the mRNA used include ARCA cap structure, polyA tail length of 100-120 nt, and complete substitution of pseudouridine.

[6] = Encapsulation rate of mRNA-loaded lipid nanoparticles (Ribogreen kit); assay type: physicochemical; conditions: Table 4 batch; EPO mRNA LNP prepared as Example 20
[7] = Particle size, PDI and zeta potential of mRNA-loaded lipid nanoparticles (Malvern Zetasizer nano); assay type: physicochemical; conditions: Table 4 batch; EPO mRNA LNP prepared as Example 20
C57BL6 mice = test: Intratumoral injection of luciferase mRNA LNP, fluorescence of tumor and liver; assay type: in vivo; conditions: luciferase mRNA LNP 25 μL/2.5 μg intratumoral, B 16F 10 tumor in C57BL6 mice, imaging after 24 h (FIGS. 6 and 7)
Description: Different types of lipid nanoparticles encapsulating luciferase mRNA in were prepared accordance with the preparation of Example 20. Tumors were injected subcutaneously in the right abdomen of 6-8 week female C57BL6 mice at 5×10^5 B 16F 10 cells (from CAS Cell Bank, CSTR:19375.09.3101MOUTCM36)/mouse, and tumor growth was observed and recorded periodically. On the 8th day after tumor inoculation, the length (L, mm) and width (D, mm) of the tumors were measured by using a vernier caliper, and the tumor volume (V) was calculated according to the formula V=(L×D^2)/2. Mice with tumor volume in the range of 80-120 mm^3 were taken and randomly grouped, and intratumorally injected with different types of lipid nanoparticles encapsulating luciferase mRNA at the volume of 25 μL/2.5 μg. Anatomical imaging was performed after 24 h to detect the fluorescence intensity of the mouse liver and tumor (as shown in FIGS. 6 and 7). […] This indicates better in situ tumor expression and lower liver […], which is suitable for encapsulation and delivery of some tumor therapy-related nucleic acid drugs.

SD rats = test: Abnormal toxicity of cationic lipid nanoparticles, tail i.v. injection, liver and kidney function; assay type: in vivo; conditions: EPO mRNA LNP, 5 mg/kg tail intravenous injection, female SD rats
Description: The nanoparticles prepared in Example 27 were used in this experiment. The nanoparticles were injected via tail intravenous injection at a dose of 5 mg/kg in female SD rats weighing 200-250 g. The […] in the control group were injected with a corresponding volume of normal saline. […] Blood samples were collected at 120 h after injection, and alanine transaminase (ALT), aspartate aminotransferase (AST), urea nitrogen (BUN), and serum creatinine (SCR) were measured using a fully automated biochemistry instrument as the evaluation indexes of hepatic and renal functions.

[8] = Table 1, Luciferase mRNA LNP, cationic lipid:DSPC:cholesterol:DMG-PEG2000 50:10:38.5:1.5 molar
[9] = Table 3 batch, luciferase mRNA LNP prepared as Example 20

SMILES | Encapsulation rate (%) [1, 8] [%] | Encapsulation rate (%) [1, 9] [%] | PDI [2, 8] | Particle size (nm) [2, 8] [nm] | Zeta potential (mV) [2, 8] [mV] | PDI [2, 9] | Particle size (nm) [2, 9] [nm] | relative fluorescence intensity (%) (BALB/c mice [3]) | fluorescent levels of mRNA expression (FIG. 2) (BALB/c mice [4]) | EPO concentration (BALB/c mice [5]) [pg/mL] | Encapsulation rate (%) [6] [%] | PDI [7] | Particle size (nm) [7] [nm] | brightness (fluorescence intensity) at the tumor (C57BL6 mice) | brightness (fluorescence intensity) in the liver (C57BL6 mice) | death after injection (time) (SD rats) [h]
CCCCCCCCOCC(C)C(=O)OCCCCCN(CCO)CCCCCCCC(=O)OC(CCCCCCCC)CCCCCCCC (centres unmarked) [Compound 7] | 96.1 | 96.8 | 0.17 | 78.9 | −3.77 | 0.15 | 82.9 | 754 ± 32 | superior to Lipid M and SM-102 | 4.21e+07 | 97.8 | 0.09 | 88.8 | – | – | –
CCCCCCCCC(CCCCCCCC)OC(=O)CCCCCCCN(CCO)CCCCCCCOC(=O)C(C)CSCCCCCC (centres unmarked) [Compound 51] | – | 98.0 | – | – | – | 0.11 | 91.0 | 734 ± 51 | – | 6.68e+07 | 95.0 | 0.14 | 75.3 | higher brightness at the tumor | lower brightness in the liver | –
CCCCC/C=C\C/C=C\CCCCCCCCC(CCCCCCCC/C=C\C/C=C\CCCCC)OC(=O)CCCN(C)C [DLin-MC3-DMA, reference compound] | 87.6 | – | 0.19 | 102.3 | −0.03 | 0.16 | 101.5 | 100 | – | 4.37e+06 | 90.1 | 0.19 | 97.6 | – | – | ≤ 18
